Measurements published in US5147856A, “Method for inhibiting blood vessel blockage using octapeptide compositions” (Societe de Conseils de Recherches et d'Applications …, priority 1988, dated 1992).
Square brackets hold non-standard residues; d marks the D form. Mpa = O=C(O)CCS

Columns and labels:
[1] = tested on: myointimal proliferation of the carotid artery; assay: Air-drying injury of the rat carotid artery, intimal/media ratio (Example 2); assay type: in vivo; conditions: for Intimal/Media Ratio: from two days prior to injury and five days postinjury, sacrifice day 15, mean ± SE; for Inhibition of myointimal (smooth muscle cell) proliferation of the carotid artery, in words: administered from two days prior to injury, at the doses used (20 and 50 μg/kg/day)
Protocol: Male Sprague-Dawley rats, weighing […], obtained from Charles River were kept under controlled lighting conditions and fed rat chow and water ad libitum. Under sodium pentobarbital anesthesia the intima of the right carotid artery was subjected to an air-drying injury described by Fishman et al, Lab Invest., 32, 339 (1975). The procedure causes intimal hyperplasia that largely consists of proliferating intimal smooth muscle cells. In this model approximately 4 cm of the vessel is isolated and drained of blood. Air (20 ml/min) is blown through a 30 gauge needle for 5 min whereafter blood flow is reestablished. The contralateral carotid artery was also exposed but not air-dried. The rats were sacrificed 15 days later.
The experiment consisted of a control group and ten treatment groups. The somatostatin analogs used were hepta- or octapeptides, namely BIM 23014 (Angiopeptin), BIM 23012, BIM 23027, BIM 23030 and BIM 23034. […] The animals were pretreated two days prior to the procedure and for a further five days following the endothelial injury. Two additional groups of animals were added in order to study whether Angiopeptin (20 μg/kg/day and 50 μg/kg/day) administered 30 min prior to the endothelial injury and for a further five days would protect against the myointimal proliferation.
The animals were sacrificed on day 15 following the injury by exsanguination. The vascular system was flushed with normal saline and perfusion-fixed at 80 mmHg with 10% formalin. The carotid arteries were subsequently fixed, embedded and sectioned for light microscopy and morphometric analysis. The maximal intimal/media ratio is the distance from the lumen to the internal elastic lamina and the distance from the internal elastic lamina to the external elastic lamina. The distances were determined in each vessel using a digitizing system attached to a light microscope. The determinations were performed on three different cross sections of the vessel and each section was measured three times. The mean was calculated for each vessel. Differences between the groups were evaluated using Student's unpaired t-test.

[2] = tested on: growth hormone release; conditions: cited from earlier work; for Potency for growth hormone suppression in vivo, relative to somatostatin 14: rats, compared to somatostatin 14 (=1)
[3] = 20 μg/kg/day s.c. in two divided doses
[4] = 50 μg/kg/day s.c. in two divided doses

| Substance | Intimal/Media Ratio [1, 3] | Intimal/Media Ratio [1, 4] | Inhibition of myointimal (smooth muscle cell) proliferation of the carotid artery, in words [1] | Potency for growth hormone suppression in vivo, relative to somatostatin 14 [2] | Inhibition of growth hormone release, in words ([2]; in vivo) |
| --- | --- | --- | --- | --- | --- |
| D-Phe--Cys--Phe-D-Trp--Lys--Thr--Cys--Thr--NH2 [BIM 23012] | 2.3 ± 0.4 | 1.6 ± 0.4 | did not inhibit | 62 | – |
| D-Trp--Lys--Abu--Phe--Me--Ala--Tyr [BIM 23027] | 1.6 ± 0.2 | 1.5 ± 0.2 | did not inhibit | 100 | most potent |
| [Mpa]Y[dW]KVCF-NH2 (cysteine pairing not given here) [BIM 23030] | 1.6 ± 0.2 | 2.2 ± 0.5 | did not inhibit | 0.5 | – |
